Experimental data published in ChEMBL document CHEMBL3988442, “University of Dundee, Small-Polar-MMV Screening Library” (2021).
“And” between values parts separate entries of the source, which are not always exact repeats. Equal entries are not always repeated.

Experiments:
[1] = target: Sialic acid-binding Ig-like lectin 9 (Homo sapiens, UniProt Q9Y336); assay: Hs-Siglec9 ALPHAscreen SOP 20170721
[2] = target: T1, Coenzyme A biosynthesis bifunctional protein CoaBC (Mycobacterium tuberculosis (strain ATCC 25618 / H37Rv), UniProt P9WNZ1); assay: Biomol Green assay for MtCoaBC inhibitor, OD650 read; type: functional
T1 sequence (P9WNZ1 whole entry): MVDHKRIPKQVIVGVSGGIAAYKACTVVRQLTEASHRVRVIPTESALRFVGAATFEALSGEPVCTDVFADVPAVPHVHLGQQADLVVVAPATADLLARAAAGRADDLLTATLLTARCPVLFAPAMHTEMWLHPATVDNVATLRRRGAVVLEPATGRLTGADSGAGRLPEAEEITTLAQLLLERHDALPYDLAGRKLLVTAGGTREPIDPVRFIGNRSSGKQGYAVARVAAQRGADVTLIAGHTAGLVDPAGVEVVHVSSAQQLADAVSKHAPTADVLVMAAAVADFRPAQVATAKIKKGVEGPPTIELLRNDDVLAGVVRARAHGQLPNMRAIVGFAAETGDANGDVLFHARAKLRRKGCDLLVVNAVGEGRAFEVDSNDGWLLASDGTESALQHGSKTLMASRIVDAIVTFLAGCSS

[3] = tested on: Mycobacterium tuberculosis; assay: Cornell M. t heat shock assay; type: functional, organism-based; conditions: for IC50: Mycobacterium tuberculosis
[4] = tested on: Wolbachia pipientis; assay: Anti-Wolbachia Cell-Based Screen; type: functional; conditions: for IC50: Wolbachia pipientis
[5] = tested on: Plasmodium falciparum; assay: Calibr Malaria Delayed Death Assay SOP; type: functional, organism-based; conditions: for IC50: Plasmodium falciparum
[6] = microbe, parasite or virus in culture; conditions: Mycobacterium tuberculosis, 96 h, read-out: pIC50 (converted)
[7] = microbe, parasite or virus in culture; conditions: Mycobacterium tuberculosis, 72 h, read-out: pIC50 (converted)
[8] = tested on: Leishmania donovani; assay: Leishmania intramacrophage assay; type: functional, organism-based; conditions: for IC50: Leishmania donovani
[9] = In vitro enzyme assay to detect hydrolysis of chlorophenol red-beta-D-[…] directly proportional to the number of Toxoplasma stably expressing beta-galactosidase; type: functional, organism-based, Toxoplasma gondii
[10] = target: Lysine--tRNA ligase (Plasmodium falciparum (isolate 3D7), UniProt Q8IDJ8); assay: Pf-KRS-1 (Lysyl-RNA Synthetase-1, KRS-1, cytosolic KRS) from Plasmodium falciparum. Inhibitor assay, 384 well plate, luminescence read.; type: functional
[11] = target: T2, Histidine--tRNA ligase (Leishmania infantum, UniProt A4I591); assay: Leishmania infantum Histidine tRNA synthetase (LdHisRS); type: functional
T2 sequence (A4I591 whole entry): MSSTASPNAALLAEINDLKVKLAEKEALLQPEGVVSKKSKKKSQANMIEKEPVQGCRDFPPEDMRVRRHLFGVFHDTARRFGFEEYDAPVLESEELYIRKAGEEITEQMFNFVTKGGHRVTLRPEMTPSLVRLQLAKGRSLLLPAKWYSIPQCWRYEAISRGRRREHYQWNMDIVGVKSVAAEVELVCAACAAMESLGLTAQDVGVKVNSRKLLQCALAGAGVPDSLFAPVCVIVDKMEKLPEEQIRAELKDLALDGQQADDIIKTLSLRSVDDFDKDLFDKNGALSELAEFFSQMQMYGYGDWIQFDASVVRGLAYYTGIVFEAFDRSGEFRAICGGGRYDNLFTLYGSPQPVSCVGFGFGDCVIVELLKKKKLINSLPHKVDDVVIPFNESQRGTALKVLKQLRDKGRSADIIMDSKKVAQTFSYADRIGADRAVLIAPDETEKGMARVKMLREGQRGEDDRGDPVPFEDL

[12] = target: Polyketide synthase Pks13 (Mycobacterium tuberculosis (strain ATCC 25618 / H37Rv), UniProt I6X8D2); assay: Mycobacterium tuberculosis Polyketide synthase 13 Thioesterase (PKS13); type: functional
Chain of Polyketide synthase Pks13 (I6X8D2 whole entry): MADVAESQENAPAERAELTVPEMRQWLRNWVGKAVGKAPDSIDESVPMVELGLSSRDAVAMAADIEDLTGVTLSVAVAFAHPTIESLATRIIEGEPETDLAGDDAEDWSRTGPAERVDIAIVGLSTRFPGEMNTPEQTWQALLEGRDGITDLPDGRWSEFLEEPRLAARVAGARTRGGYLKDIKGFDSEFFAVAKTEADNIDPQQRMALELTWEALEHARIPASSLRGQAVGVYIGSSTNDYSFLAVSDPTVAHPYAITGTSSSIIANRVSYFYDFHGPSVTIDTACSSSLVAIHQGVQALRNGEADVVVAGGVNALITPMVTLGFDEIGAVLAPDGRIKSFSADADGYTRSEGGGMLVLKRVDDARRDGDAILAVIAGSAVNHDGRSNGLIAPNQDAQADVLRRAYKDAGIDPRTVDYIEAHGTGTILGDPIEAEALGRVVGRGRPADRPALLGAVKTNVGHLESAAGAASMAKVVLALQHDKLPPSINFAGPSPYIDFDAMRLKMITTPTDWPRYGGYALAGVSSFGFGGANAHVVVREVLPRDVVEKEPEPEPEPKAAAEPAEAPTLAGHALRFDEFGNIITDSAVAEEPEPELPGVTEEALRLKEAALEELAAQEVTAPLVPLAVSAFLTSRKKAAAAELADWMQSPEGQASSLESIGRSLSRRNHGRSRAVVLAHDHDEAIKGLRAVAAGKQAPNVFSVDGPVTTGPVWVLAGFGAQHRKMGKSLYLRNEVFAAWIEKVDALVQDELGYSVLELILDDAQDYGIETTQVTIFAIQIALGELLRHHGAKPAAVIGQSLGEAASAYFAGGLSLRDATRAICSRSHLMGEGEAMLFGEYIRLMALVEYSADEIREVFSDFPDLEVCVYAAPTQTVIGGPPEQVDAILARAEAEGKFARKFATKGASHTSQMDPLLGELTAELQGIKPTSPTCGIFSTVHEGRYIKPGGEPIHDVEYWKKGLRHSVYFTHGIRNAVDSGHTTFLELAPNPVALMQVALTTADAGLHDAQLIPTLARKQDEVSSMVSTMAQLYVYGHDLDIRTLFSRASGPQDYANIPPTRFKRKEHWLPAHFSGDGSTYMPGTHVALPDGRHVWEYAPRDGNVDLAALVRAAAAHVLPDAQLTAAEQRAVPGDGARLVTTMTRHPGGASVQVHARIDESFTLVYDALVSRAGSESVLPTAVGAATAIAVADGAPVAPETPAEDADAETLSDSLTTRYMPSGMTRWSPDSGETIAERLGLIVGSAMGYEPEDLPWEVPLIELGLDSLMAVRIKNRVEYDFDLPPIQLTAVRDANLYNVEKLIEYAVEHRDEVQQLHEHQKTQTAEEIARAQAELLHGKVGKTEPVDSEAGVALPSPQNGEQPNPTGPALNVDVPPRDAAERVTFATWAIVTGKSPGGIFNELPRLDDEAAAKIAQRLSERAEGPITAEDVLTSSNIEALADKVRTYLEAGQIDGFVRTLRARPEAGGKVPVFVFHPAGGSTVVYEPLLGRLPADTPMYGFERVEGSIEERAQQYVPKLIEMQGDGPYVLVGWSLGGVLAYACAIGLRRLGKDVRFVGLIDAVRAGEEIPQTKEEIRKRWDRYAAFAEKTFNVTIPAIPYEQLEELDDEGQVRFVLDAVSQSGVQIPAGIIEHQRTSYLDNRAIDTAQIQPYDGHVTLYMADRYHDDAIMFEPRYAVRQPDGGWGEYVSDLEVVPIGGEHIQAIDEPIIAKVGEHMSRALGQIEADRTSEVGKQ

Chain of Sialic acid-binding Ig-like lectin 9 (Q9Y336 whole entry): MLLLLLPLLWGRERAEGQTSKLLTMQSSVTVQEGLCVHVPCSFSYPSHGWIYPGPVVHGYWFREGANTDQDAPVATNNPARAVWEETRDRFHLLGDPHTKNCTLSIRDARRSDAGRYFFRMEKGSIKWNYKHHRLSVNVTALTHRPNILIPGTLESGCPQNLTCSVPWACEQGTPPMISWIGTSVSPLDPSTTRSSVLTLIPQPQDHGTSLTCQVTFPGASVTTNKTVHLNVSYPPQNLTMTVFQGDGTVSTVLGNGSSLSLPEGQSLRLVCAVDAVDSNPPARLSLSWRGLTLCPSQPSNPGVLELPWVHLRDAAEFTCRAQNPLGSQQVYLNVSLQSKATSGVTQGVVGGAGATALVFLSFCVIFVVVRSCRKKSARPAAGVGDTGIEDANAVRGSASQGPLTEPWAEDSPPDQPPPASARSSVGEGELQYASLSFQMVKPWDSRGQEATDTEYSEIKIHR
Chain of Lysine--tRNA ligase (Q8IDJ8 whole entry): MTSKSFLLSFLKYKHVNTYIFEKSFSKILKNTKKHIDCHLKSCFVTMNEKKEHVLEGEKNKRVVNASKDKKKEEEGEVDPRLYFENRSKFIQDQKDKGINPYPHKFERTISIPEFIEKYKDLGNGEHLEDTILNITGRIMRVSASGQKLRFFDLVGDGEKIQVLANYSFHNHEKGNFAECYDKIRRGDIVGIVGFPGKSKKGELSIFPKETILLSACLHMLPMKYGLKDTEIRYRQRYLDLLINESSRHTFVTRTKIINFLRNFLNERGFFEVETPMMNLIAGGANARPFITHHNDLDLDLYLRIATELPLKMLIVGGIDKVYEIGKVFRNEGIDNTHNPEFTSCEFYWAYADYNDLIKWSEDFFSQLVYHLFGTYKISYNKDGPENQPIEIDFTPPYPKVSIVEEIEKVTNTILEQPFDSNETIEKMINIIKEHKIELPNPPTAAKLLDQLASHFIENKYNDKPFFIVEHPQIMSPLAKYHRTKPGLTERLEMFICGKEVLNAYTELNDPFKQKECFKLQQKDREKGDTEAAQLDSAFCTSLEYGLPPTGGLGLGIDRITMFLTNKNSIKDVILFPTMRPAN

SMILES	IC50 [1] [µM]	also measured
CCOC(=O)[C@@H]1[C@@H](O)C(=O)N(C)C12CCN(C(=O)c1ccco1)CC2	> 30.2	
CCOC(=O)[C@@H]1[C@@H](OC)C(=O)N(C)C12CCN(C(=O)C(CC)CC)CC2	> 30.2	
CCOC(=O)[C@H]1[C@@H](O)C(=O)N(C)C12CCN(C(=O)OC)CC2	> 30.2	
CCOC(=O)[C@H]1[C@@H](O)C(=O)N(C)C12CCN(C(=O)OCC)CC2	> 30.2	
CCOC(=O)[C@H]1[C@@H](O)C(=O)N(C)C12CCN(C(=O)CC(C)C)CC2	> 30.2	
CCOC(=O)[C@H]1[C@@H](O)C(=O)N(C)C12CCN(S(=O)(=O)CC)CC2	> 30.2	
CCOC(=O)[C@H]1[C@@H](O)C(=O)N(C)C12CCN(C(=O)CC(C)(C)C)CC2	> 30.2	
CCOC(=O)[C@H]1[C@@H](O)C(=O)N(C)C12CCN(C(=O)C(CC)CC)CC2	> 30.2	
CCOC(=O)[C@H]1[C@@H](O)C(=O)N(C)C12CCN(C(=O)CC1CCCC1)CC2	> 30.2	
CCOC(=O)[C@@H]1[C@@H](O)C(=O)N(C)C12CCN(C(=O)OC)CC2	> 30.2	
CCOC(=O)[C@H]1[C@@H](O)C(=O)N(C)C12CCN(C(=O)c1ccccc1)CC2	> 30.2	
CC(C)NC(=O)c1csc(NC2CC2)n1	> 30.2	
CC(C)CCNc1nc(C(=O)NC2CC2)cs1	> 30.2	
Cc1cc(CNC(=O)c2ccno2)c(C)o1	> 30.2	
O=C(NCc1nc2ccccc2[nH]1)c1cc2n(n1)CCCO2	> 30.2	
CCNC(=O)c1cc2n(n1)CCCO2	> 30.2	
CCOC(=O)CNC(=O)c1cc2n(n1)CCCO2	> 30.2	
CCOC(=O)Cc1csc(NC(=O)c2cc3n(n2)CCCO3)n1	> 30.2	
CCS(=O)(=O)CCNC(=O)c1cc2n(n1)CCCO2	> 30.2	
Cc1cc(CNC(=O)c2cnoc2C)c(C)o1	> 30.2	
CC(=O)NCC(=O)N1Cc2cc(C#N)ccc2C1c1cnco1 (stereo not given)	> 30.2	
N#Cc1ccc2c(c1)CN(C(=O)c1nc[nH]n1)C2c1cnco1 (stereo not given)	> 30.2	
N#Cc1ccc2c(c1)CN(C(=O)C1CC=CC1)C2c1cnco1 (stereo not given)	> 30.2	
CC(C)NC(=O)N1CCC2(CC1)COc1ccccc1S(=O)(=O)N(C)C2	> 30.2	
CN1CC2(CCN(C(=O)C3CCC3)CC2)COc2ccccc2S1(=O)=O	> 30.2	
CCN1CC2(CCN(C(=O)N(C)C)CC2)COc2ccccc2S1(=O)=O	> 30.2	
COCCN1CCC2(CC1)COc1ccccc1S(=O)(=O)N(C)C2	> 30.2	

SMILES	IC50 [1] [µM]	also measured
CN(C)CC(=O)N1CCC2(CC1)COc1ccccc1S(=O)(=O)N(C)C2	> 30.2	
COCC(=O)N1CCC2(CC1)COc1ccccc1S(=O)(=O)N(C)C2	> 30.2	
CCn1ncc2c1C(COC)CN(Cc1nccs1)C2 (stereo not given)	> 30.2	
CCOCC1CN(Cc2ccsc2)Cc2cnn(C)c21 (stereo not given)	> 30.2	
CCn1ncc2c1C(COC)CN(Cc1ccco1)C2 (stereo not given)	> 30.2	
CCn1ncc2c1C(COC)CN(Cc1ccc(C)o1)C2 (stereo not given)	> 30.2	
CCn1ncc2c1C(COC)CN(Cc1cnn(C)c1)C2 (stereo not given)	> 30.2	
Cc1cc(CN2C[C@@H]3COC[C@]3(COCC(=O)N(C)C)C2)no1	> 30.2	
O=c1[nH]nc(-c2cccs2)c2sc(N3CCOCC3)nc12	> 30.2	
CC(C)NC(=O)C1CCN(c2nc3nc[nH]c(=O)c3s2)CC1	> 30.2	
CNC(=O)C1CCN(c2nc3nc[nH]c(=O)c3s2)CC1	> 30.2	
O=C(C1CCN(c2nc3nc[nH]c(=O)c3s2)CC1)N1CCCCC1	> 30.2	
O=C(NC1CC1)C1CCN(c2nc3nc[nH]c(=O)c3s2)CC1	> 30.2	
COC(=O)CC1CCN(C(=O)c2ccc(C)cc2)CC1	> 30.2	
COC(=O)CC1CCN(C(=O)c2ccc(-n3nnnc3C)cc2)CC1	> 30.2	
COC(=O)CC1CCN(C(=O)c2ccccc2-n2nnnc2C)CC1	> 30.2	
CCc1cc(=O)[nH]c(NC2CCN(S(=O)(=O)c3ccccc3)CC2)n1		IC50 [2]: > 30.2 µM; IC50 [3]: > 100 µM
c1ccc(CCN2CCCC2c2cccc(Nc3nccs3)n2)cc1 (stereo not given)		IC50 [2]: > 30.2 µM; pIC50 [3]: 4.565; IC50 [3]: 38.9 µM; pIC50 [4]: 5.678; IC50 [4]: 1.09 µM
Cc1cnc(Nc2cccc(C3CCCN3Cc3cn(C)nc3C)n2)s1 (stereo not given)		IC50 [2]: > 30.2 µM; pIC50 [3]: 5.045 and 4.742; pIC50 [4]: 5.174; IC50 [4]: 5.37 µM
Cc1ccccc1CN1CCCC1c1cccc(Nc2nccs2)n1 (stereo not given)		IC50 [2]: > 30.2 µM; pIC50 [3]: 5.632; IC50 [3]: 1.93 µM
Cc1cccc(CN2CCCC2c2cccc(Nc3nccs3)n2)c1 (stereo not given)		pIC50 [5]: 5.988; IC50 [5]: 1010 nM; pIC50 [3]: 5.755; IC50 [3]: 2.41 µM; pIC50 [4]: 5.856; IC50 [4]: 1.87 µM
CC(C)C(NC(=O)c1cnc(N2CCOCC2)nc1)c1cccs1 (stereo not given)		IC50 [2]: > 30.2 µM; IC50 [3]: 48.2 µM; IC50 [6]: 48.9 µM; IC50 [7]: 44.9 µM
CCN(CC)S(=O)(=O)N1CCCC1c1cccc(Nc2ncc(C)s2)n1 (stereo not given)		IC50 [3]: > 100 µM; pIC50 [4]: 5.165; IC50 [4]: 8.99 µM
CS(=O)(=O)N1CCCC1c1cccc(Nc2nccs2)n1 (stereo not given)		IC50 [3]: > 100 µM; pIC50 [4]: 5.083; IC50 [4]: 9.08 µM
Cc1ccc(Oc2cc(F)ccc2O[C@@H]2CCC[C@@H](N)[C@H]2O)cc1		pIC50 [8]: 4.961; IC50 [8]: 6.4 µM; IC50 ([9]; Toxoplasma gondii): 8.59 µM; pIC50 [5]: 6.291; IC50 [5]: 584 nM; pIC50 [3]: 4.493; IC50 [3]: 33.6 µM; IC50 [6]: 47.8 µM; IC50 [7]: 39.4 µM
CC(C)N(C)CC(=O)NCc1ccccc1N1CCN(C)CC1	> 30.2	
COc1ccc(C(C)NCc2cscn2)cc1Cn1cccn1 (stereo not given)	> 30.2	

SMILES	IC50 [1] [µM]	also measured
COc1ccc(C(C)NCc2cccs2)cc1Cn1cccn1 (stereo not given)	> 30.2	
COc1ccc(C(C)NCc2ccnn2C)cc1Cn1cccn1 (stereo not given)	> 30.2	
COc1ccc(C(C)NCc2scnc2C)cc1Cn1cccn1 (stereo not given)	> 30.2	
COCCC1(C(=O)NCCc2nncn2C2CC2)CCC1	> 30.2	
O=C(NCCc1nncn1C1CC1)C1(c2ccccc2)CCC1	> 30.2	
CC(C)CC1(C(=O)NCCc2nncn2C2CC2)CCC1	> 30.2	
O=C(NCCc1nncn1C1CC1)C1(Cc2ccccc2)CCC1	> 30.2	
O=C(NCCc1nncn1C1CC1)C1SCCc2ccccc21 (stereo not given)	> 30.2	
Cc1occc1C(=O)N1CCOC2(CCCC2)C1	> 30.2	
COc1ccc(-n2cc(CCO)cn2)cc1C		IC50 [2]: > 30.2 µM; IC50 [10]: > 50.1 µM; IC50 [11]: 17.7 µM and 11.1 µM; IC50 [3]: 41.4 µM
Cc1nc(C2CCNCC2)cc(N(C)Cc2cc3cc(F)ccc3[nH]2)n1		pIC50 [8]: 4.976; IC50 [8]: 11.9 µM; pIC50 [9]: 5.24 and 4.835; pIC50 [5]: 6.017; IC50 [5]: 803 nM; IC50 [3]: 72.3 µM
O=C(CN1CCOC(CNc2cccnn2)C1)NCc1cccs1 (stereo not given)		IC50 [3]: > 100 µM; IC50 [4]: > 10 µM
c1ccc2oc(CCCN3CCCCC3Cn3cncn3)nc2c1 (stereo not given)		IC50 [12]: > 100 µM; IC50 [3]: > 100 µM
CC(Cn1cccn1)NCc1csc(Cc2ccccc2)n1 (stereo not given)		IC50 [2]: > 30.2 µM; IC50 [3]: 12.7 µM
Cc1nn(C)c(C)c1CCn1cncc1-c1ccc2c(c1)CC(C)N2C.Cl (stereo not given)		IC50 [8]: > 50.1 µM; IC50 [11]: 43.1 µM and 43 µM; pIC50 [5]: 5.741; IC50 [5]: 1720 nM; IC50 [3]: > 100 µM
CN1CC2(CCN(CC3CC3)CC2)COc2ccccc2S1(=O)=O	> 30.2	
CN(C)C(=O)CN1CCC2(CC1)COc1ccccc1S(=O)(=O)N(C)C2	> 30.2	
Cc1ccsc1CN1C[C@@H]2COC[C@]2(COCC(=O)N(C)C)C1	> 30.2	
CN(C)C(=O)COC[C@]12COC[C@H]1CN(CCc1ccccc1)C2	> 30.2	
Cc1csc(CN2C[C@@H]3COC[C@]3(COCC(=O)N(C)C)C2)n1	> 30.2	
CN(C)C(=O)COC[C@]12COC[C@H]1CN(Cc1ccco1)C2	> 30.2	
CN(C)C(=O)COC[C@]12COC[C@H]1CN(Cc1ccccc1)C2	> 30.2	
Cc1nc(CN2C[C@@H]3COC[C@]3(COCC(=O)N(C)C)C2)cs1	> 30.2	
CCn1ncc2c1C(COC)CN(Cc1ccc(F)cc1)C2 (stereo not given)	> 30.2	
Cc1cccc(CN2C[C@@H]3COC[C@]3(COCC(=O)N(C)C)C2)n1	> 30.2	
CCn1ncc2c1C(COC)CN(Cc1cccnc1)C2 (stereo not given)	> 30.2	
